Experiment [1] concerns the target T1, α-synuclein fibrils (Homo sapiens, UniProt P37840).
T1 construct: made in house; host or cells: E. coli BL21(DE3)RIL
Kind of experiment: ThT saturation binding to α-synuclein fibrils (Example 116). The note with it: saturation curve. As to the method: The mixture was incubated at room temperature for 1 hour on the shaking plate. The reaction plate was scanned by the excitation wavelength range from 430 to 465 nm. The maximum excitation wavelength (λex) was determined according to the fluorescent intensity-excitation wavelength curve. At (λex), the emission wavelength was scanned to get maximum emission wavelength (λem).
The mixture was incubated at room temperature for 1 hour on the shaking plate. The fluorescent intensity for each cell was measured by the fluorescence reader at λex and λem.

Experiment [2] has as its target T1, α-synuclein fibrils. Kind of experiment: Radioligand binding assay with α-synuclein fibrils (Table 8).
The next experiment deals with PD Tissue. Kind of experiment: Radioligand saturation binding, PD postmortem brain tissue. Also noted: species or system human. The note with it: brain tissue homogenate. An excerpt: (§1) Brain tissue samples were selected from an autopsy case series of patients evaluated for parkinsonism by movement disorders specialists at the Movement Disorders Center of Washington University School of Medicine in St. Louis. The clinical diagnosis of idiopathic PD was based on modified United Kingdom Parkinson's Disease Society Brain Bank clinical diagnostic criteria with clear clinical response to levodopa [Hughes, A. J., et al, “Accuracy of clinical diagnosis of idiopathic Parkinson's disease: a clinico-pathological study of 100 cases,” 1992, J. Neurol. Neurosurg. Psychiatry, 55:181-184]. Dementia was determined by a movement disorders specialist based on clinical assessment of cognitive dysfunction sufficiently severe to impair activities of daily living, with further evaluation of cognitive impairment using the AD8 and Mini-Mental Status Exam (MMSE) [Galvin, J. E., et al., “The AD8: a brief informant interview to detect dementia,” 2005, Neurology 65:559-564; Folstein, M. F., et al., ““Mini-mental state”. A practical method for grading the cognitive state of patients for the clinician,” 1975, J. Psychiatr Res, 12:189-198]. LB stage was assessed at autopsy using a PD staging scale (range: 0, 1-6) [Braak, H., et al., “Stages in the development of Parkinson's disease-related pathology,” 2004, Cell Tissue Res., 318:121-134]. PD cases were selected based on a clinical diagnosis of PD plus dementia, Braak LB stage 5-6 pathology, and the absence of significant Aβ or tau pathology determined by immunohistochemistry. Control cases were selected based on the absence of α-synuclein, Aβ and tau pathology. Samples were used from both male and female subjects.
(§2) Grey matter was isolated from frozen postmortem frontal cortex tissue by dissection with a scalpel. To prepare insoluble fractions, dissected tissue was sequentially homogenized in four buffers (3 ml/g wet weight of tissue) with glass Dounce tissue grinders (Kimble): 1) High salt (HS) buffer: 50 mM Tris-HCl pH 7.5, 750 mM NaCl, 5 mM EDTA; 2) HS buffer with 1% Triton X-100; 3) HS buffer with 1% Triton X-100 and 1 M sucrose; and 4) phosphate buffered saline (PBS). Homogenates were centrifuged at 100,000×g after each homogenization step and the pellet was resuspended and homogenized in the next buffer in the sequence. For comparison in initial binding studies, crude tissue homogenates were also prepared by homogenization of tissue in only PBS. […]
(§3) Saturation binding assays combine binding substrate and varying radioligand concentrations, with or without the addition of a high concentration (50-100 times the estimated Kd) of a competitor compound to determine nonspecific binding. […] Specific binding is determined by subtracting nonspecific binding from total binding. […]

In another experiment the test system is AD Tissue. Kind of experiment: Radioligand saturation binding, AD postmortem brain tissue. Details: species or system human. The note with it: brain tissue homogenate.
The test system of another experiment is Control Tissue. Kind of experiment: Radioligand saturation binding, control postmortem brain tissue. Also noted: species or system human. The note with it: brain tissue homogenate.
From the text: as §1, §2, §3

In the next experiment the target is T2, Aβ1-42 fibrils (Homo sapiens, UniProt P05067).
T2 construct: Synthetic Aβ42 peptide (1 mg) (Bachem, Torrance, Calif.); purchased Bachem, Torrance, Calif; host or cells: synthetic peptide
Kind of experiment: Radioligand binding assay with Aβ1-42 fibrils (Table 8).

In experiment [3] the target is T1, α-synuclein fibrils. Kind of experiment: Thioflavin T competition assay (Example 130, Table 9), α-synuclein fibrils. The class given is binding. The procedure:
Freshly transformed BL21 colonies were inoculated into 2 L baffled flasks containing 250 ml sterilized TB (1.2% bactotryptone, 2.4% yeast extract, 0.4% glycerol, 0.17 M KH2PO4, 0.72 M K2HPO4) with 50 μg/ml ampicillin, and incubated overnight at 37° C. with shaking.
(§4) Competition assays used a fixed concentration of α-syn, Aβ, or tau fibrils (1 μM), consisting of 3 μM, 50 nM and 4 μM of ThioflavinT respectively. […] To optimize the determination of selectivity, assays for all three fibril species were set up in parallel using a common set of intermediate compound dilutions for each analog. Reactions were incubated at room temperature for 1.5 h before quantifying bound ligand as described above for the saturation binding assay. […] All data points were performed in triplicate. Nonspecific fluorescence was measured in parallel reactions containing ThioT plus each concentration of competitor but no fibrils, and these measurements were subtracted from the reactions with fibrils to yield fibril-specific fluorescence. Data were analyzed using Graphpad. Prism software (version 4.0) to obtain EC50 values by fitting the data to the equation Y=bottom+(top-bottom)/(1+10^(x−log EC50)).

In experiment [4] the target is T3, tau fibrils (Homo sapiens, UniProt P10636). Kind of experiment: Radioligand binding assay with tau fibrils (Table 8). Details: made in house; host or cells: E. coli BL21(DE3)RIL.
Experiment [5] deals with T3, tau fibrils. Kind of experiment: Thioflavin T competition assay (Example 130, Table 9), tau fibrils. The class given is binding. Also noted: made in house; host or cells: E. coli BL21(DE3)RIL. The procedure:
Recombinant tau protein was produced in E. coli.
as §4

A further experiment deals with Aβ fibrils (Homo sapiens, UniProt P05067). Kind of experiment: Thioflavin T competition assay (Example 130, Table 9), Aβ fibrils. The class given is binding. Also noted: Synthetic Aβ42 peptide (1 mg) (Bachem, Torrance, Calif.); purchased Bachem, Torrance, Calif; host or cells: synthetic peptide. The procedure:
An additional 925 μl of mQ-H2O was added. […] Fibril formation was confirmed by ThioT fluorescence.
as §4

As a reminder, the Kd is the concentration at which binding is half-saturated. High values mean lower affinity, low ones higher affinity. The term EC50 denotes the concentration that produces a half-maximal response. The Ki is a measure of affinity in units of concentration, obtained from inhibition or displacement.

“And” between values parts separate entries of the source, which are not always exact repeats. Equal entries are not always repeated. Where two headings read alike, the source gives them in different places.

T3 sequence (P10636 560-692): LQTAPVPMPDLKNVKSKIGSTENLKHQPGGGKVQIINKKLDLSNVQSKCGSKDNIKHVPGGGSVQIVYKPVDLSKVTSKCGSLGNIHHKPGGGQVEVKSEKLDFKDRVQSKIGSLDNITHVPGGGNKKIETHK
Chain of Aβ fibrils (P05067 672-713 limits assumed): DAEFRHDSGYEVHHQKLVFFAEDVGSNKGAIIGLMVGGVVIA
T2 sequence (P05067 672-713 limits assumed): as above
Method for Aβ1-42 fibrils: Synthetic Aβ42 peptide (1 mg) (Bachem, Torrance, Calif.) was first dissolved in 50 μl DMSO. An additional 925 μl of mQ-H2O was added. Finally, 25 μl 1M Tris-HCl pH 7.6 was added to bring the final peptide concentration to 222 μM (1 mg/ml) [16]. The dissolved peptide was incubated for 30 h at 37° C. with shaking at 1000 rpm in an Eppendorf Thermomixer. Fibril formation was confirmed by ThioT fluorescence. To determine the concentration of fibrils, the fibril reaction mix was centrifuged at 15,000×g for 15 min to separate fibrils from monomer. The concentration of Aβ monomer in the supernatant was determined in a BCA protein assay using a BSA standard curve that contained DMSO at a percentage equivalent to the samples. […]
A fixed concentration (1 μM) of α-syn, Aβ, or tau fibrils were incubated for 2 h at 37° C. with increasing concentrations of ThioT in 30 mM Tris-HCl pH 7.4, 0.1% BSA in a reaction volume of 150 μl. Nonspecific binding was determined in a duplicate set of binding reactions containing the same concentration of ThioT with no fibrils. Fluorescence was determined in a Biotek plate reader using a 440/30 excitation filter and a 485/20 emission filter. […] The dissociation constant (Kd) and the maximal number of binding sites (Bmax) values were determined by fitting the data to the equation Y=Bmax*X/(X+Kd) by nonlinear regression using Graphpad Prism software (version 4.0).

As for `Cc1ccc2c(c1)sc(-c1ccc(N(C)C)cc1)[n+]2C` [ThT, Thioflavin T], the “Bmax for ThioT binding to fibrils” value at α-synuclein fibrils [1] was 5672 afu.
As for `COc1ccc2nc(/C=C/c3ccnc(OC)c3)ccc2c1` [[^11C]TZ-36-28-2T], the “α-synuclein Bmax (pmol/nmol)” value on α-synuclein fibrils [2] came to 51 pmol/nmol. At PD Tissue, the Kd turned out to be 0.055 µM and the “PD Tissue Bmax (pmol/nmol)” value turned out to be 367 pmol/nmol. For the same molecule, the “AD Tissue Bmax (pmol/nmol)” value with AD Tissue stood at 4316 pmol/nmol. Besides, in the experiment with Control Tissue, the “Control Tissue Bmax (pmol/nmol)” value is 1081 pmol/nmol and the Kd is 0.158 µM.
Consider `COc1cc(/C=C/c2ccc3cc(OCCF)ccc3n2)ccn1` [[^18F]TZ-36-148], for which the Kd at α-synuclein fibrils [2] was 0.09 µM; at Aβ1-42 fibrils, 0.098 µM; on PD Tissue it was 0.167 µM; at AD Tissue, 0.083 µM; on Control Tissue, 0.477 µM; on tau fibrils [4], 0.051 µM. Also, the EC50 is 0.0467 µM on α-synuclein fibrils [3] (average, read-out: α-synuclein EC50 (avg)); 0.0445 µM and 0.049 µM on α-synuclein fibrils [3] (individual determinations, read-out: α-synuclein EC50); 0.278 µM on tau fibrils [5] (average, read-out: Tau fibrils EC50 (avg)); 0.305 µM and 0.251 µM on tau fibrils [5] (individual determinations, read-out: Tau fibrils EC50); 0.449 µM at Aβ fibrils (average, read-out: Aβ-fibrils EC50 (avg)); 0.435 µM and 0.462 µM on Aβ fibrils (individual determinations, read-out: Aβ-fibrils EC50). In addition, the Ki was 0.018 µM at α-synuclein fibrils [3] (average, read-out: α-synuclein Ki (avg)); 0.017 µM and 0.019 µM at α-synuclein fibrils [3] (individual determinations, read-out: α-synuclein Ki); 0.124 µM and 0.102 µM at tau fibrils [5] (individual determinations); 0.168 µM at Aβ fibrils (average, read-out: Aβ-fibrils Ki (avg)); 0.163 µM and 0.173 µM on Aβ fibrils (individual determinations, read-out: Aβ-fibrils Ki).
For `COc1cc(/C=C/c2ccc3cc(OCC[18F])ccc3n2)ccn1` [[^18F]TZ-36-148], the “α-synuclein Bmax (pmol/nmol)” value on α-synuclein fibrils [2] was 29 pmol/nmol. Further, at Aβ1-42 fibrils, the “Aβ1-42 fibrils Bmax (pmol/nmol)” value is given as 28 pmol/nmol. The “PD Tissue Bmax (pmol/nmol)” value in the experiment with PD Tissue is on record as 1510 pmol/nmol. For the same molecule, in the experiment on AD Tissue, the “AD Tissue Bmax (pmol/nmol)” value is listed as 12945 pmol/nmol. Moreover, in the experiment with Control Tissue, the “Control Tissue Bmax (pmol/nmol)” value turned out to be 604 pmol/nmol. Further, the “Tau fibrils Bmax (pmol/nmol)” value at tau fibrils [4] came out at 58 pmol/nmol.

Source of the values: patent US10300155B2, “Alpha-synuclein ligands” (Washington University, priority 2015, dated 2019).
